Assay results reported in patent US20100034832A1, “METHODS FOR MANIPULATING STEM CELLS” (THE GENERAL HOSPITAL CORPORATION, priority 2006, published 2010).
Like-named read-outs stand apart in the source and are kept apart here.

Experiments:
[1] = system: immature HSC fraction of the BM; conditions: 200 mg/kg CTX intraperitoneally, day 4
Protocol: In the CIX injury model, either sterile PBS or CTX at final concentration of 200 mg/kg mouse weight was injected intraperitoneally. At day 4 after injection, mice were euthanized and BM was obtained from femurs and tibiae of each mouse (n=5 per group).
Apoptosis was measured by AnnexinV and 7AAD staining as previously described Cheng, T. et al. Nat. Med. 6, 1235-1240 (2000).

PB leucocyte count = experiment: 5-fluorouracil (5FU) BM injury model, PB counts; assay type: in vivo, mouse; conditions: single 150 mg/kg 5FU intraperitoneally
Protocol: Similar results were obtained when mice were subjected to BM injury using 5-fluorouracil (5FU) (data not shown). In the 5FU injury model, 150 mg/kg mouse weight 5FU was injected intraperitoneally at day 0 PB was obtained through tail vein bleeding for analysis weekly starting day 0 (n=10 per group).
Next, we examined the role of P2Y14 in long-term hematopoietic recovery from BM injury. The mice were subjected to a single injection of 5FU and followed the peripheral blood (PB) leucocyte counts as well as PB granulocyte, B cell and T cell content by flow cytometry.
Med. 6, 1235-1240 (2000).

SMILES | immature HSC fraction of the BM (% LKS+, % CD34lo/-LKS+) ([1]; P2Y14-/- mice) | apoptosis in the immature HSC fraction ([1]; P2Y14-/- mice, AnnexinV and 7AAD) | immature HSC fraction of the BM (% LKS+, % CD34lo/-LKS+) ([1]; wildtype mice) | persistence of greater than normal granulocyte (Gr-1+) count rebound (PB leucocyte count; P2Y14-/- mice) | nadir of total PB leucocyte count (PB leucocyte count; both -/- and +/+ mice) [days] | peak of rebound leucocytosis (PB leucocyte count; both -/- and +/+ mice) [days] | return to baseline leucocyte count (PB leucocyte count; both -/- and +/+ mice)
O=P1(N(CCCl)CCCl)NCCCO1 (stereo not shown) [CTX, cyclophosphamide] | loss of enrichment for immature HSC fraction | increased apoptosis | enrichment of immature HSC fraction | – | – | – | –
O=c1[nH]cc(F)c(=O)[nH]1 [5FU, 5-fluorouracil] | – | – | – | up to 9 weeks | 7 | 14 | 3-4 weeks post-injection
